From the supplement of paper PMC11451515

Test system: SEM cells
Assay: cell viability relative to DMSO control; higher = less cytotoxic
Conditions: 48 h
Summary of the method: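 Viability is expressed as a percentage of DMSO wells within each plate, and cell-free wells serve as background. Seeding densities in the 1536-well plates (5 μl) were 500 cells/well for NOMO1 or SEM leukemia cells and 1000 cells/well for P12-Ichikawa. Each line was adapted for at least four passages in each medium. Library compounds in DMSO were pin-dosed at 47 μM to 0.79 nM (11 points, threefold), and CellTiter-Glo One luminescence was read after 48 h at 37°C.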

[1] = HPLM + 10% dialyzed FBS, 0.000781 µM
[2] = HPLM + 10% dialyzed FBS, 0.00234 µM
[3] = HPLM + 10% dialyzed FBS, 0.00702 µM
[4] = HPLM + 10% dialyzed FBS, 0.0211 µM
[5] = HPLM + 10% dialyzed FBS, 0.0632 µM
[6] = HPLM + 10% dialyzed FBS, 0.19 µM
[7] = HPLM + 10% dialyzed FBS, 0.569 µM
[8] = HPLM + 10% dialyzed FBS, 1.71 µM
[9] = HPLM + 10% dialyzed FBS, 5.12 µM
[10] = HPLM + 10% dialyzed FBS, 15.4 µM
[11] = HPLM + 10% dialyzed FBS, 46.1 µM
[12] = RPMI 5 mM glucose + 10% FBS, 0.000781 µM
[13] = RPMI 5 mM glucose + 10% FBS, 0.00234 µM
[14] = RPMI 5 mM glucose + 10% FBS, 0.00702 µM
[15] = RPMI 5 mM glucose + 10% FBS, 0.0211 µM
[16] = RPMI 5 mM glucose + 10% FBS, 0.0632 µM
[17] = RPMI 5 mM glucose + 10% FBS, 0.19 µM
[18] = RPMI 5 mM glucose + 10% FBS, 0.569 µM
[19] = RPMI 5 mM glucose + 10% FBS, 1.71 µM
[20] = RPMI 5 mM glucose + 10% FBS, 5.12 µM
[21] = RPMI 5 mM glucose + 10% FBS, 15.4 µM
[22] = RPMI 5 mM glucose + 10% FBS, 46.1 µM
[23] = RPMI 5 mM glucose + 10% dialyzed FBS, 0.000781 µM
[24] = RPMI 5 mM glucose + 10% dialyzed FBS, 0.00234 µM
[25] = RPMI 5 mM glucose + 10% dialyzed FBS, 0.00702 µM
[26] = RPMI 5 mM glucose + 10% dialyzed FBS, 0.0211 µM
[27] = RPMI 5 mM glucose + 10% dialyzed FBS, 0.0632 µM
[28] = RPMI 5 mM glucose + 10% dialyzed FBS, 0.19 µM
[29] = RPMI 5 mM glucose + 10% dialyzed FBS, 0.569 µM
[30] = RPMI 5 mM glucose + 10% dialyzed FBS, 1.71 µM
[31] = RPMI 5 mM glucose + 10% dialyzed FBS, 5.12 µM
[32] = RPMI 5 mM glucose + 10% dialyzed FBS, 15.4 µM
[33] = RPMI 5 mM glucose + 10% dialyzed FBS, 46.1 µM

`CC(C)C(C)/C=C/C(C)C1CCC2C3=CC=C4CC(O)CCC4(C)C3CCC21C` (stereo not drawn) was tested, and the cell viability [1] was 92.6%, the cell viability [2] was 79.7% and the cell viability [3] was 86.7%. It also gave a cell viability [4] of 73.2%, a cell viability [5] of 82% and a cell viability [6] of 77.4%. For the same compound, the cell viability [7] was 83.7%, the cell viability [8] was 76.5% and the cell viability [9] was 68.6%. The cell viability [10] was 81.8%, the cell viability [11] was 86.4% and the cell viability [12] was 99.6%. For the same compound, the cell viability [13] was 107%, the cell viability [14] was 111% and the cell viability [15] was 99.8%. It also gave a cell viability [16] of 97.1%, a cell viability [17] of 94% and a cell viability [18] of 111%. For the same compound, the cell viability [19] was 92.9%, the cell viability [20] was 98.5% and the cell viability [21] was 96.1%. For the same compound, the cell viability [22] was 102%, the cell viability [23] was 88% and the cell viability [24] was 107%. It also gave a cell viability [25] of 95.1%, a cell viability [26] of 83.1% and a cell viability [27] of 107%. For the same compound, the cell viability [28] was 91.4%, the cell viability [29] was 117% and the cell viability [30] was 105%. The cell viability [31] was 87.2%, the cell viability [32] was 88.8% and the cell viability [33] was 88.3%.
`CN[S+](=O)([O-])Cc1ccc2[nH]cc(CCN(C)C)c2c1` showed a cell viability [1] of 95.3%, a cell viability [2] of 104% and a cell viability [3] of 102%. For the same compound, the cell viability [4] was 111%, the cell viability [5] was 112% and the cell viability [6] was 118%. It also gave a cell viability [7] of 113%, a cell viability [8] of 119% and a cell viability [9] of 118%. For the same compound, the cell viability [10] was 129%, the cell viability [11] was 118% and the cell viability [12] was 89.2%. The cell viability [13] was 114%, the cell viability [14] was 104% and the cell viability [15] was 114%. For the same compound, the cell viability [16] was 107%, the cell viability [17] was 119% and the cell viability [18] was 121%. The cell viability [19] was 115%, the cell viability [20] was 126% and the cell viability [21] was 128%. The cell viability [22] was 128%, the cell viability [23] was 93.4% and the cell viability [24] was 86%. The cell viability [25] was 87%, the cell viability [26] was 91.8% and the cell viability [27] was 94.1%. For the same compound, the cell viability [28] was 102%, the cell viability [29] was 95.7% and the cell viability [30] was 106%. For the same compound, the cell viability [31] was 94.8%, the cell viability [32] was 111% and the cell viability [33] was 92.9%.
With `COc1cc2c(cc1-c1c(C)noc1C)ncc1[nH]c(=O)n([C@H](C)c3ccccn3)c12` the cell viability [12] was 117%, the cell viability [13] was 106% and the cell viability [14] was 140%. For the same compound, the cell viability [15] was 120%, the cell viability [16] was 119% and the cell viability [17] was 114%. It also gave a cell viability [18] of 102%, a cell viability [19] of 65.4% and a cell viability [20] of 8.34%. For the same compound, the cell viability [21] was 6.3%, the cell viability [22] was 3.15% and the cell viability [23] was 101%. For the same compound, the cell viability [24] was 94.8%, the cell viability [25] was 110% and the cell viability [26] was 119%. It also gave a cell viability [27] of 101%, a cell viability [28] of 96.1% and a cell viability [29] of 76.5%. The cell viability [30] was 49.7%, the cell viability [31] was 6.42% and the cell viability [32] was 6.4%. It also gave a cell viability [33] of 3.1%.
With `CNC1CCC(N(Cc2cccc(-c3ccncc3)c2)C(=O)c2sc3ccccc3c2Cl)CC1` (stereo not drawn) the cell viability [1] was 86.2%, the cell viability [2] was 93.2% and the cell viability [3] was 104%. It also gave a cell viability [4] of 90.6%, a cell viability [5] of 87.9% and a cell viability [6] of 105%. For the same compound, the cell viability [7] was 95.5%, the cell viability [8] was 25.6% and the cell viability [9] was 4.92%. It also gave a cell viability [10] of 3.48%, a cell viability [11] of 2.45% and a cell viability [12] of 90.1%. It also gave a cell viability [13] of 83.7%, a cell viability [14] of 100% and a cell viability [15] of 114%. The cell viability [16] was 88.5%, the cell viability [17] was 97.4% and the cell viability [18] was 18.2%. For the same compound, the cell viability [19] was 6.65%, the cell viability [20] was 5.64% and the cell viability [21] was 3.32%. The cell viability [22] was 1.88%, the cell viability [23] was 76.6% and the cell viability [24] was 82.9%. The cell viability [25] was 95.5%, the cell viability [26] was 98.5% and the cell viability [27] was 77.7%. For the same compound, the cell viability [28] was 99.1%, the cell viability [29] was 81.6% and the cell viability [30] was 6.38%. It also gave a cell viability [31] of 5.65%, a cell viability [32] of 3.68% and a cell viability [33] of 2.48%.
With `CC(=O)Nc1ccc(OC[C@](C)(O)C(=O)Nc2ccc([N+](=O)[O-])c(C(F)(F)F)c2)cc1` the cell viability [1] was 67.5%, the cell viability [2] was 59.4% and the cell viability [3] was 69%. The cell viability [4] was 75.9%, the cell viability [5] was 68.9% and the cell viability [6] was 72.8%. For the same compound, the cell viability [7] was 77.1%, the cell viability [8] was 84% and the cell viability [9] was 83.4%. For the same compound, the cell viability [10] was 82.3%, the cell viability [11] was 54.8% and the cell viability [12] was 81.6%. The cell viability [13] was 78.3%, the cell viability [14] was 77.8% and the cell viability [15] was 103%. The cell viability [16] was 80.8%, the cell viability [17] was 80.2% and the cell viability [18] was 88.8%. It also gave a cell viability [19] of 90.4%, a cell viability [20] of 81.8% and a cell viability [21] of 93.7%. The cell viability [22] was 44.7%, the cell viability [23] was 79.9% and the cell viability [24] was 79%. It also gave a cell viability [25] of 84.8%, a cell viability [26] of 108% and a cell viability [27] of 86.7%. The cell viability [28] was 97.5%, the cell viability [29] was 88.7% and the cell viability [30] was 93.8%. It also gave a cell viability [31] of 71%, a cell viability [32] of 91.7% and a cell viability [33] of 48%.
`OC1=CC=C(C=C1)\C2=C\OC3=C(C=CC(=C3)O)C2=O` was tested, and the cell viability [1] was 102%, the cell viability [2] was 96.6% and the cell viability [3] was 103%. It also gave a cell viability [4] of 109%, a cell viability [5] of 114% and a cell viability [6] of 102%. The cell viability [7] was 104%, the cell viability [8] was 102% and the cell viability [9] was 108%. For the same compound, the cell viability [10] was 101%, the cell viability [11] was 94.5% and the cell viability [12] was 100%. For the same compound, the cell viability [13] was 89.9%, the cell viability [14] was 109% and the cell viability [15] was 104%. The cell viability [16] was 107%, the cell viability [17] was 96.5% and the cell viability [18] was 99.4%. The cell viability [19] was 104%, the cell viability [20] was 112% and the cell viability [21] was 96.7%. The cell viability [22] was 104%, the cell viability [23] was 96.7% and the cell viability [24] was 97.1%. It also gave a cell viability [25] of 109%, a cell viability [26] of 118% and a cell viability [27] of 101%. It also gave a cell viability [28] of 101%, a cell viability [29] of 107% and a cell viability [30] of 112%. It also gave a cell viability [31] of 110%, a cell viability [32] of 101% and a cell viability [33] of 104%.
Compound `CC(=O)O.Cc1c(-c2ccc(O)cc2)n(Cc2ccc(OCCN3CCCCCC3)cc2)c2ccc(O)cc12` has a cell viability [1] of 88.5%, a cell viability [2] of 50% and a cell viability [3] of 91.9%. For the same compound, the cell viability [4] was 92%, the cell viability [5] was 99.7% and the cell viability [6] was 112%. It also gave a cell viability [7] of 102%, a cell viability [8] of 101% and a cell viability [9] of 93.5%. For the same compound, the cell viability [10] was 117%, the cell viability [11] was 99.5% and the cell viability [12] was 92%. For the same compound, the cell viability [13] was 46.9%, the cell viability [14] was 89% and the cell viability [15] was 98.7%. For the same compound, the cell viability [16] was 86.6%, the cell viability [17] was 95.4% and the cell viability [18] was 89.2%. For the same compound, the cell viability [19] was 95.5%, the cell viability [20] was 86.9% and the cell viability [21] was 92.5%. The cell viability [22] was 94.4%, the cell viability [23] was 90.2% and the cell viability [24] was 41.7%. For the same compound, the cell viability [25] was 93.8%, the cell viability [26] was 99.6% and the cell viability [27] was 81.2%. The cell viability [28] was 102%, the cell viability [29] was 101% and the cell viability [30] was 94.1%. The cell viability [31] was 110%, the cell viability [32] was 119% and the cell viability [33] was 101%.
Compound `c1cncc(CN2CCC(n3ncc4c(N5CCOCC5)nc(-c5ccc6[nH]ccc6c5)nc43)CC2)c1` has a cell viability [1] of 93.8%, a cell viability [2] of 88.8% and a cell viability [3] of 98.3%. For the same compound, the cell viability [4] was 90%, the cell viability [5] was 101% and the cell viability [6] was 81%. It also gave a cell viability [7] of 66.6%, a cell viability [8] of 69.2% and a cell viability [9] of 73.4%. It also gave a cell viability [10] of 58.9%, a cell viability [11] of 33.1% and a cell viability [12] of 123%. For the same compound, the cell viability [13] was 117%, the cell viability [14] was 111% and the cell viability [15] was 103%. For the same compound, the cell viability [16] was 105%, the cell viability [17] was 95.4% and the cell viability [18] was 68.2%. For the same compound, the cell viability [19] was 93%, the cell viability [20] was 80.3% and the cell viability [21] was 37.1%. For the same compound, the cell viability [22] was 11.6%, the cell viability [23] was 87.1% and the cell viability [24] was 88.4%. The cell viability [25] was 94.7%, the cell viability [26] was 87.2% and the cell viability [27] was 87.3%. The cell viability [28] was 96.4%, the cell viability [29] was 61.9% and the cell viability [30] was 76.2%. For the same compound, the cell viability [31] was 66.5%, the cell viability [32] was 32.6% and the cell viability [33] was 8.23%.
